The text below walks through data of US20070203137A1, “New Salt” (ASTRAZENECA AB, priority 2006, published 2007).

The structures appear in SMILES notation. Where a name gives a salt, the structure may show the parent alone.

Data set [1] is described as follows: Hygroscopicity by Dynamic Vapour Sorption Analysis (DVS). It counts as physicochemical. Conditions: 25° C. As to the method: Dynamic Vapour Sorption Analysis (DVS)
The studies were undertaken using Dynamic Vapour Sorption Apparatus (DVS, Surface Measurement Systems, London UK). The apparatus consists of Cahn micobalance housed inside a temperature-controled cabinet. All experiments were performed at 25° C. The DVS was used to characterize the moisture uptake (w/w %) at different relative humidities (RH). Samples (5-10 mg) were weighed directly into the DSV sample cup and exposed to different relative humidities.

Data set [2] in a line: Photo stability of bulk substance (Suntest CPS+ cabinet). To be noted: 29 hours.
Protocol: The exposure was 250 Wh/m^2 and 1.2 million lux hours over 29 hours.

On to `N#Cc1ccc2[nH]c(O)c(-c3ccc(CN4CCOCC4)cn3)c2c1` [HCl, hydrochloride salt of 2-hydroxy-3-[5-(morpholin-4-ylmethyl)pyridin-2-yl]1H-indole-5-carbonitrile, reference compound], for which the moisture uptake in data set [1] (40% relative humidity) amounted to 8.7 w/w %; in data set [1] (60% relative humidity), 11.5 w/w %; in data set [1] (80% relative humidity), 13.0 w/w %.

For `N#Cc1ccc2[nH]c(O)c(-c3ccc(CN4CCOCC4)cn3)c2c1` [Citrate, 2-hydroxy-3-[5-(morpholin-4-ylmethyl)pyridin-2-yl]1H-indole-5-carbonitrile citrate], the “photo stability compared with the hydrochloride salt and the free base” value in data set [2] is recorded as “much higher photo stability”. In addition, the moisture uptake in data set [1] (40% relative humidity, citrate) amounted to 7.1 w/w %; in data set [1] (60% relative humidity, citrate), 7.6 w/w %; in data set [1] (80% relative humidity, citrate), 8.0 w/w %. Further, the “hygroscopicity compared with the hydrochloride salt” value in data set [1] (DVS) is reported as “lower hygroscopicity”.
